In the supplement of paper PMC5752671:
Where a name gives a salt, the structure may show the parent alone.

Experiments:
Details in all cases: 4 days
KASUMI1 [1] = assay: IC50 (cell viability) (log10 M)
Procedure, shortened: (§1)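 Fourteen leukemia cell lines were plated on extracellular-matrix-coated 384-well plates. Drugs were added robotically the next day at eight concentrations spanning 4–5 logs within 10^–12–10^–4 M, tailored per drug, in duplicate. Viability was read with CellTiter-Glo after 4 days. IC50 is the concentration where a fitted four-parameter curve crosses 50% viability, in log10 M; where that is not reached, the highest tested concentration is entered.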

MOLM/16 [2] = assay: IC50 (cell viability) (log10 M)
Procedure, shortened: as §1

NB4 [3] = assay: IC50 (cell viability) (log10 M)
Procedure, shortened: as §1

U937 [4] = assay: IC50 (cell viability) (log10 M)
Procedure, shortened: as §1

EOL-1 = assay: area under dose-response curve (cell viability) (AUC (arbitrary, % viability x log concentration)); higher = less sensitive (more viable)
Procedure, shortened: (§2)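 Drugs were dispensed robotically, one day after plating, onto fourteen leukemia cell lines in 384-well plates coated with extracellular matrix. Each drug was tested in duplicate at eight concentrations spanning 4–5 logs inside 10^–12–10^–4 M, adjusted per drug, and CellTiter-Glo readout followed after 4 days. Duplicates were averaged and a four-parameter sigmoid was fitted. The area under that fitted curve is the reported value.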

HL60 = assay: as above
Procedure, shortened: as §2

KASUMI1 [5] = assay: as above
Procedure, shortened: as §2

KG1 = assay: as above
Procedure, shortened: as §2

MOLM/13 = assay: as above
Procedure, shortened: as §2

MOLM/16 [6] = assay: as above
Procedure, shortened: as §2

MV4.11 = assay: as above
Procedure, shortened: as §2

NB4 [7] = assay: as above
Procedure, shortened: as §2

OCI-AML2 = assay: as above
Procedure, shortened: as §2

OCI-AML3 = assay: as above
Procedure, shortened: as §2

PL-21 = assay: as above
Procedure, shortened: as §2

SKM1 = assay: as above
Procedure, shortened: as §2

THP-1 = assay: as above
Procedure, shortened: as §2

U937 [8] = assay: as above
Procedure, shortened: as §2

Structure (SMILES) | IC50 (log10 M) (KASUMI1 [1]) | IC50 (log10 M) (MOLM/16 [2]) | IC50 (log10 M) (NB4 [3]) | IC50 (log10 M) (U937 [4]) | area under dose-response curve (EOL-1) | area under dose-response curve (HL60) | area under dose-response curve (KASUMI1 [5]) | area under dose-response curve (KG1) | area under dose-response curve (MOLM/13) | area under dose-response curve (MOLM/16 [6]) | area under dose-response curve (MV4.11) | area under dose-response curve (NB4 [7]) | area under dose-response curve (OCI-AML2) | area under dose-response curve (OCI-AML3) | area under dose-response curve (PL-21) | area under dose-response curve (SKM1) | area under dose-response curve (THP-1) | area under dose-response curve (U937 [8])
CC(=O)Nc1cccc(-n2c(=O)n(C3CC3)c(=O)c3c(Nc4ccc(I)cc4F)n(C)c(=O)c(C)c32)c1 | -7.17 | > -5 | -7.5 | > -5 | 250 | 287 | 371 | 431 | 571 | 450 | 468 | 407 | 196 | 218 | 350 | 253 | 497 | 578
CN(C)CCCn1cc(C2=C(c3c[nH]c4ccccc34)C(=O)NC2=O)c2ccccc21 | -5.1 | -5.55 | > -5 | > -5 | 479 | 710 | 647 | 608 | 534 | 543 | 500 | 648 | 582 | 663 | 591 | 601 | 701 | 694
Cc1ccccc1-n1c(Cn2cnc3c(N)ncnc32)nc2cccc(C)c2c1=O | > -5 | > -5 | > -5 | > -5 | 598 | 719 | 665 | 718 | 659 | 644 | 650 | 667 | 633 | 664 | 614 | 637 | 679 | 641
N#CC[C@H](C1CCCC1)n1cc(-c2ncnc3[nH]ccc23)cn1 | > -5 | -5.35 | > -5 | -5.57 | 636 | 697 | 681 | 631 | 652 | 595 | 649 | 656 | 626 | 669 | 609 | 681 | 684 | 573
CN(C)CC[C@H](CSc1ccccc1)Nc1ccc(S(=O)(=O)NC(=O)c2ccc(N3CCN(Cc4ccccc4-c4ccc(Cl)cc4)CC3)cc2)cc1[N+](=O)[O-] [ABT-737] | -7.03 | -6.39 | > -6 | -6.16 | 333 | 457 | 403 | 497 | 395 | 467 | 342 | 503 | 400 | 543 | 514 | 524 | 538 | 546
NC(=O)c1ccc2nc(-c3ccc(Oc4ccc(Cl)cc4)cc3)[nH]c2c1 [BML 277] | > -5 | -5.35 | > -5 | > -5 | 621 | 739 | 735 | 683 | 682 | 628 | 715 | 652 | 724 | 692 | 628 | 672 | 714 | 655
O=C(O)C1(C(=O)O)CCC1.[NH2-].[NH2-].[Pt+2] [Carboplatin] | > -5 | > -5 | > -5 | > -5 | 617 | 751 | 749 | 726 | 684 | 672 | 631 | 665 | 608 | 685 | 644 | 677 | 737 | 700
N.N.[Cl][Pt][Cl] [Cisplatin] | > -5 | > -5 | > -5 | > -5 | 666 | 764 | 731 | 760 | 684 | 650 | 719 | 665 | 646 | 678 | 639 | 657 | 761 | 685
Cn1cc(C2=C(c3cn(C4CCN(Cc5ccccn5)CC4)c4ccccc34)C(=O)NC2=O)c2ccccc21 [Enzastaurin] | > -5 | > -5 | > -5 | > -5 | 635 | 745 | 700 | 734 | 650 | 685 | 690 | 646 | 678 | 706 | 646 | 673 | 703 | 694
C#Cc1cccc(Nc2ncnc3cc(OCCOC)c(OCCOC)cc23)c1 [Erlotinib HCl] | > -5 | -5.69 | > -5 | -5.02 | 554 | 696 | 683 | 627 | 660 | 556 | 628 | 670 | 672 | 685 | 610 | 665 | 699 | 642
CCc1cccc2c3c([nH]c12)C(CC)(CC(=O)O)OCC3 (stereo not drawn) [Etodolac] | > -5 | > -5 | > -5 | > -5 | 653 | 694 | 678 | 707 | 654 | 672 | 705 | 624 | 648 | 683 | 626 | 685 | 705 | 682
CSCC[C@H](NC(=O)c1ccc(NC[C@@H](N)CS)cc1-c1ccccc1)C(=O)O [FTI-276] | > -5 | > -5 | > -5 | > -5 | 629 | 753 | 722 | 768 | 641 | 611 | 641 | 601 | 611 | 660 | 601 | 668 | 765 | 658
CC1=C(/C=C/C(C)=C/C=C/C(C)=C/C(=O)Nc2ccc(O)cc2)C(C)(C)CCC1 [Fenretinide] | -5.47 | -5.9 | -5.62 | -5.82 | 538 | 691 | 691 | 618 | 618 | 535 | 545 | 536 | 545 | 570 | 565 | 581 | 653 | 569
c1cc(-c2sc(-c3ccncc3)c(-c3ccncc3)c2-c2ccncc2)ccn1 [GANT58] | > -5 | > -5 | > -5 | > -5 | 599 | 733 | 704 | 691 | 643 | 611 | 671 | 624 | 603 | 645 | 604 | 650 | 735 | 630
CCc1c2c(nc3ccc(OC(=O)N4CCC(N5CCCCC5)CC4)cc13)-c1cc3c(c(=O)n1C2)COC(=O)[C@]3(O)CC [Irinotecan HCl] | -5.07 | -5.71 | -5.8 | -5.47 | 513 | 625 | 618 | 627 | 498 | 516 | 499 | 563 | 514 | 569 | 564 | 574 | 627 | 571
CC(C)C[C@@H](C=O)NC(=O)[C@H](CC(C)C)NC(=O)[C@H](CC(C)C)NC(=O)OCc1ccccc1 [MG132] | -6.3 | -6.99 | -7.22 | -6.99 | 429 | 487 | 484 | 543 | 534 | 428 | 402 | 475 | 352 | 452 | 488 | 421 | 522 | 464
CO[C@@]12[C@H](COC(N)=O)C3=C(C(=O)C(C)=C(N)C3=O)N1C[C@@H]1N[C@@H]12 [Mitomycin C] | -6.29 | -7.38 | -7.79 | -7.18 | 274 | 419 | 453 | 471 | 322 | 341 | 181 | 309 | 203 | 341 | 486 | 387 | 384 | 369
FC(F)(F)c1ccc(/C=C/c2nc(COc3ccc(CCCCn4ccnn4)cc3)co2)cc1 [Mubritinib] | > -5 | -6.88 | -6.42 | -7.27 | 404 | 611 | 534 | 561 | 604 | 402 | 560 | 496 | 547 | 529 | 515 | 588 | 514 | 431
COc1cc(N2CCC(N3CCN(C)CC3)CC2)ccc1Nc1ncc(Cl)c(Nc2ccccc2S(=O)(=O)C(C)C)n1 [NVP-TAE-684] | -5.7 | -5.56 | -5.25 | > -5 | 501 | 580 | 560 | 536 | 556 | 551 | 548 | 591 | 541 | 603 | 511 | 576 | 644 | 651
COc1cccc2cc(-c3nc([C@H]4CC[C@H](C(=O)O)CC4)n4ncnc(N)c34)[nH]c12 [OSI-027] | -5.9 | -6.66 | -5.52 | -6.28 | 350 | 576 | 521 | 383 | 516 | 429 | 499 | 576 | 506 | 509 | 491 | 548 | 566 | 489
C[C@@H]1C[C@H]2[C@@H]3CCC4=CC(=O)C=C[C@]4(C)[C@@]3(F)[C@@H](O)C[C@]2(C)[C@@]1(O)C(=O)CO [dexamethasone] | > -5 | > -5 | > -5 | > -5 | 766 | 806 | 538 | 689 | 657 | 715 | 767 | 610 | 653 | 710 | 598 | 615 | 795 | 576
